Reference: patent US12214092B2, “Systems and methods for treating biological fluids” (Cerus Corporation, priority 2017, dated 2025)

What was measured:
platelets = assay: Platelet quality, platelets in 100% plasma: 75 μM amotosalen + 340 nm (~6.4 or ~7.2 J/cm^2) or 150 μM + INT-100 (~3.6 J/cm^2, with CAD); format: cell-based
S. epidermidis = assay: Amotosalen and two sequential UV light doses (UVC + UVA) treatment of S. epidermidis in plasma, colony forming unit assay; format: cell-based; settings: 15 μM amotosalen, titer pre-UV 7.51; for Titer Post-Second: ~3 J/cm^2 each
Protocol: Additionally, any two or more wavelengths of narrow bandwidth light are evaluated in combination, such as for example, photochemical treatment of a biological fluid using amotosalen and ultraviolet light of a first peak wavelength and ultraviolet light of a second peak wavelength, sequentially or concurrently. More specifically, in one example pathogen inactivation of E. coli (Gram negative) and S. epidermidis (Gram positive) bacteria was evaluated using amotosalen and the device with LEDs of wavelengths described in Example 8. […] The spiked plasma units were divided into control (no amotosalen+UV light) and treatment (with amotosalen) conditions, with amotosalen used at 15 μM concentration. The units were aliquoted into six-well plates (5 mL/well) for illumination. Pre-illumination samples were taken and control bacterial titers determined using standard colony forming unit assay. […] Data for pre-illumination titers, post-first illumination titer, post-second illumination titer, and post-treatment (after second illumination) residual amotosalen (S-59) are shown in the following Tables 40-41.

## Cc1oc2c(C)c3oc(=O)cc(C)c3cc2c1COCCN [S-59, 3-(2-aminoethoxymethyl)-2,5,9-trimethylfuro[3,2-g]chromen-7-one]
platelets; 340/~6.4, D5
  Extent of Shape Change (ESC): 22.15
  Hypotonic Shock Response (HSR): 56.50
  Morphology (Kunicki score): 271.50
  P-selectin (CD62P): 51.70
  pCO2: 35.00 mmHg
  pH @ 22° C.: 7.15
  pH @ 37° C.: 6.92
  pO2: 59.75 mmHg
platelets; 340/~6.4, D7
  Extent of Shape Change (ESC): 16.45
  Hypotonic Shock Response (HSR): 45.98
  Morphology (Kunicki score): 259.00
  P-selectin (CD62P): 67.65
  pCO2: 30.95 mmHg
  pH @ 22° C.: 6.95
  pH @ 37° C.: 6.72
  pO2: 61.80 mmHg
platelets; 340/~6.4, Post-UVA
  pCO2: 43.60 mmHg
  pH @ 22° C.: 7.30
  pH @ 37° C.: 7.07
  pO2: 42.90 mmHg
platelets; 340/~6.4, Pre-UVA
  Extent of Shape Change (ESC): 20.60
  Hypotonic Shock Response (HSR): 45.40
  Morphology (Kunicki score): 265.50
  P-selectin (CD62P): 31.95
  pCO2: 55.20 mmHg
  pH @ 22° C.: 7.29
  pH @ 37° C.: 7.06
  pO2: 37.60 mmHg
platelets; 340/~7.2, D5
  Extent of Shape Change (ESC): 26.73
  Hypotonic Shock Response (HSR): 51.87
  Morphology (Kunicki score): 287.67
  P-selectin (CD62P): 45.00
  pCO2: 37.47 mmHg
  pH @ 22° C.: 7.11
  pH @ 37° C.: 6.88
  pO2: 49.33 mmHg
platelets; 340/~7.2, D7
  Extent of Shape Change (ESC): 19.47
  Hypotonic Shock Response (HSR): 49.47
  Morphology (Kunicki score): 254.67
  P-selectin (CD62P): 56.93
  pCO2: 32.70 mmHg
  pH @ 22° C.: 6.94
  pH @ 37° C.: 6.72
  pO2: 56.07 mmHg
platelets; 340/~7.2, Post-UVA
  pCO2: 47.23 mmHg
  pH @ 22° C.: 7.32
  pH @ 37° C.: 7.09
  pO2: 32.93 mmHg
platelets; 340/~7.2, Pre-UVA
  Extent of Shape Change (ESC): 23.50
  Hypotonic Shock Response (HSR): 49.67
  Morphology (Kunicki score): 279.33
  P-selectin (CD62P): 27.77
  pCO2: 54.43 mmHg
  pH @ 22° C.: 7.31
  pH @ 37° C.: 7.08
  pO2: 31.77 mmHg
platelets; INT-100, D5
  Extent of Shape Change (ESC): 25.20
  Hypotonic Shock Response (HSR): 55.10
  Morphology (Kunicki score): 265.67
  P-selectin (CD62P): 39.07
  pCO2: 31.83 mmHg
  pH @ 22° C.: 7.16
  pH @ 37° C.: 6.93
  pO2: 69.77 mmHg
platelets; INT-100, D7
  Extent of Shape Change (ESC): 19.82
  Hypotonic Shock Response (HSR): 46.00
  Morphology (Kunicki score): 274.67
  P-selectin (CD62P): 58.77
  pCO2: 28.47 mmHg
  pH @ 22° C.: 6.96
  pH @ 37° C.: 6.74
  pO2: 70.37 mmHg
platelets; INT-100, Post-UVA
  pCO2: 54.60 mmHg
  pH @ 22° C.: 7.17
  pH @ 37° C.: 6.94
  pO2: 62.87 mmHg
platelets; INT-100, Pre-UVA
  Extent of Shape Change (ESC): 23.50
  Hypotonic Shock Response (HSR): 49.67
  Morphology (Kunicki score): 279.33
  P-selectin (CD62P): 27.77
  pCO2: 54.43 mmHg
  pH @ 22° C.: 7.31
  pH @ 37° C.: 7.08
  pO2: 31.77 mmHg
S. epidermidis; Light 1 265 nm then Light 2 325 nm
  Titer Post-Second: <−0.11
S. epidermidis; Light 1 265 nm then Light 2 340 nm
  Titer Post-Second: <−0.11
S. epidermidis; Light 1 265 nm then Light 2 365 nm
  Titer Post-Second: <−0.11
S. epidermidis; Light 1 265 nm ~3 J/cm^2 (then 325 nm)
  Titer Post-First: 4.19
S. epidermidis; Light 1 265 nm ~3 J/cm^2 (then 340 nm)
  Titer Post-First: 4.37
S. epidermidis; Light 1 265 nm ~3 J/cm^2 (then 365 nm)
  Titer Post-First: 4.12
S. epidermidis; Light 1 280 nm then Light 2 325 nm
  Titer Post-Second: <−0.11
S. epidermidis; Light 1 280 nm then Light 2 340 nm
  Titer Post-Second: <−0.11
S. epidermidis; Light 1 280 nm then Light 2 365 nm
  Titer Post-Second: <−0.11
S. epidermidis; Light 1 280 nm ~3 J/cm^2 (then 325 nm)
  Titer Post-First: 4.13
S. epidermidis; Light 1 280 nm ~3 J/cm^2 (then 340 nm)
  Titer Post-First: 4.51
S. epidermidis; Light 1 280 nm ~3 J/cm^2 (then 365 nm)
  Titer Post-First: 4.19
S. epidermidis; Light 1 325 nm then Light 2 265 nm
  Titer Post-Second: <−0.11
S. epidermidis; Light 1 325 nm then Light 2 280 nm
  Titer Post-Second: <−0.11
S. epidermidis; Light 1 325 nm ~3 J/cm^2 (then 265 nm)
  Titer Post-First: <−0.11
S. epidermidis; Light 1 325 nm ~3 J/cm^2 (then 280 nm)
  Titer Post-First: <−0.11
S. epidermidis; Light 1 340 nm then Light 2 265 nm
  Titer Post-Second: <−0.11
S. epidermidis; Light 1 340 nm then Light 2 280 nm
  Titer Post-Second: <−0.11
S. epidermidis; Light 1 340 nm ~3 J/cm^2 (then 265 nm)
  Titer Post-First: <−0.11
S. epidermidis; Light 1 340 nm ~3 J/cm^2 (then 280 nm)
  Titer Post-First: 0.73
S. epidermidis; Light 1 365 nm then Light 2 265 nm
  Titer Post-Second: <−0.11
S. epidermidis; Light 1 365 nm then Light 2 280 nm
  Titer Post-Second: <−0.11
S. epidermidis; Light 1 365 nm ~3 J/cm^2 (then 265 nm)
  Titer Post-First: <−0.11
S. epidermidis; Light 1 365 nm ~3 J/cm^2 (then 280 nm)
  Titer Post-First: <−0.11
